By EC50 is commonly meant the concentration needed to bring the measured effect to its halfway point.

For this test, the system named is HBV. Description: Viral load production from HepAD38 cells, qPCR of the HBV core sequence in supernatant. The format is cell-based. Conditions: Hepatitis B virus, HePAD38, 120 h, HepAD38 cells, 5 days, HBV DNA in supernatant by qPCR; Table 1 ranges; read-out: Activity (viral load lowering EC50). Summed up: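 EC50 and CC50 come from four-parameter logistic fits of supernatant HBV core DNA (TaqMan qPCR, DNA standards, compared with DMSO wells) and of CellTiter-Glo luminescence.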

Regarding `Cn1nc(C2CC3CC(O)(C(F)(F)C(F)(F)F)CC3C2)c(C(=O)Nc2ccc(F)c(Cl)c2)c1N` (centres unmarked) [Example 32, 5-Amino-N-(3-chloro-4-fluorophenyl)-3-(5-hydroxy-5-(perfluoroethyl)octahydropentalen-2-yl)-1-methyl-1H-pyrazole-4-carboxamide], the EC50 lay within 10 to 50 nM.

With `Cn1nc(C2CC3CC(O)(C(F)(F)S(=O)(=O)c4ccccc4)CC3C2)c(C(=O)Nc2ccc(F)c(Cl)c2)c1N` (centres unmarked) [Example 33, 5-Amino-N-(3-chloro-4-fluorophenyl)-3-(5-(difluoro(phenylsulfonyl)methyl)-5-hydroxyoctahydropentalen-2-yl)-1-methyl-1H-pyrazole-4-carboxamide], the EC50 lay in the range of 10 to 50 nM.

With `Cn1nc(C2CC3CC(O)(C(F)(F)S(=O)(=O)c4ccc(Cl)cc4)CC3C2)c(C(=O)Nc2ccc(F)c(Cl)c2)c1N` (centres unmarked) [Example 34, 5-Amino-N-(3-chloro-4-fluorophenyl)-3-(5-(((4-chlorophenyl)sulfonyl)difluoromethyl)-5-hydroxyoctahydropentalen-2-yl)-1-methyl-1H-pyrazole-4-carboxamide], the EC50 is 10 to 50 nM.

`Cc1ccc(S(=O)(=O)C(F)(F)C2(O)CC3CC(c4nn(C)c(N)c4C(=O)Nc4ccc(F)c(Cl)c4)CC3C2)cc1` (centres unmarked) [Example 35, 5-Amino-N-(3-chloro-4-fluorophenyl)-3-(5-(difluoro(tosyl)methyl)-5-hydroxyoctahydropentalen-2-yl)-1-methyl-1H-pyrazole-4-carboxamide]: the EC50 is 10 to 50 nM.

For the compound `Cc1ccc([S+]([O-])C(F)(F)C2(O)CC3CC(c4nn(C)c(N)c4C(=O)Nc4ccc(F)c(Cl)c4)CC3C2)cc1` (centres unmarked) [Example 36, 5-Amino-N-(3-chloro-4-fluorophenyl)-3-(5-(difluoro(p-tolylsulfinyl)methyl)-5-hydroxyoctahydropentalen-2-yl)-1-methyl-1H-pyrazole-4-carboxamide], the EC50 fell in the range of 10 to 50 nM.

As for `Cn1nc(C2CC3CC(O)(CS(=O)(=O)c4cccc(F)c4)CC3C2)c(C(=O)Nc2ccc(F)c(Cl)c2)c1N` (centres unmarked) [Example 37, 5-Amino-N-(3-chloro-4-fluorophenyl)-3-(5-(((3-fluorophenyl)sulfonyl)methyl)-5-hydroxyoctahydropentalen-2-yl)-1-methyl-1H-pyrazole-4-carboxamide], the EC50 is less than 10 nM.

Take `Cn1cnc(C(=O)NCC2CC3CC(c4nn(C)c(N)c4C(=O)Nc4ccc(F)c(Cl)c4)CC3C2)c1` (centres unmarked) [Example 38, 5-Amino-N-(3-chloro-4-fluorophenyl)-1-methyl-3-(5-((1-methyl-1H-imidazole-4-carboxamido)methyl)octahydropentalen-2-yl)-1H-pyrazole-4-carboxamide]: the EC50 is less than 10 nM.

As to `CC(C)C(=O)NCC1CC2CC(c3nn(C)c(N)c3C(=O)Nc3ccc(F)c(Cl)c3)CC2C1` (centres unmarked) [Example 45, 5-Amino-N-(3-chloro-4-fluorophenyl)-3-(5-(isobutyramidomethyl)octahydropentalen-2-yl)-1-methyl-1H-pyrazole-4-carboxamide], the EC50 was less than 10 nM.

As for `Cn1nc(C2CC3CC(CNC(=O)C4CCC4)CC3C2)c(C(=O)Nc2ccc(F)c(Cl)c2)c1N` (centres unmarked) [Example 46, 5-Amino-N-(3-chloro-4-fluorophenyl)-3-(5-(cyclobutanecarboxamidomethyl)octahydropentalen-2-yl)-1-methyl-1H-pyrazole-4-carboxamide], the EC50 is less than 10 nM.

As for `Cn1nc(C2CC3CC(CNC(=O)C4CCCC4)CC3C2)c(C(=O)Nc2ccc(F)c(Cl)c2)c1N` (centres unmarked) [Example 47, 5-Amino-N-(3-chloro-4-fluorophenyl)-3-(5-(cyclopentanecarboxamidomethyl)octahydropentalen-2-yl)-1-methyl-1H-pyrazole-4-carboxamide], the EC50 is less than 10 nM.

Take `COC(=O)NCC1CC2CC(c3nn(C)c(N)c3C(=O)Nc3ccc(F)c(Cl)c3)CC2C1` (centres unmarked) [Example 48, Methyl ((5-(5-amino-4-((3-chloro-4-fluorophenyl)carbamoyl)-1-methyl-1H-pyrazol-3-yl)octahydropentalen-2-yl)methyl)carbamate]: the EC50 is less than 10 nM.

The values are drawn from patent publication US20230295096A1, “PYRAZOLE CARBOXAMIDE COMPOUNDS FOR TREATMENT OF HBV” (ASSEMBLY BIOSCIENCES, INC., priority 2020, published 2023).
